Entries after “also recorded” stand apart in the source; their conditions may differ.
Experiments:
[1] = target: T1, hLRH-1 (Homo sapiens, UniProt O00482); test: RT-qPCR of hLRH-1 target gene CYP24A1 in HepG2 / HepG2-hLRH-1 cells; assay type: cell-based
T1 construct: expressed in transfected cells; host or cells: TET-On 3G HepG2 cells; Dox-inducible pTRE 3G vector (Clontech)

[2] = target: T2, F342W/I416W hLRH-1 (Homo sapiens, UniProt O00482, F342W/I416W); test: RT-qPCR of CYP24A1 in HepG2 cells stably expressing the hLRH-1 pocket mutant; assay type: cell-based; conditions: 10 μM, 16 h, low levels of hLRH-1; listed as PME8
T2 construct: expressed in transfected cells; host or cells: TET-On 3G HepG2 cells; Dox-inducible pTRE 3G vector (Clontech)
T2 sequence (O00482 whole entry F342W/I416W): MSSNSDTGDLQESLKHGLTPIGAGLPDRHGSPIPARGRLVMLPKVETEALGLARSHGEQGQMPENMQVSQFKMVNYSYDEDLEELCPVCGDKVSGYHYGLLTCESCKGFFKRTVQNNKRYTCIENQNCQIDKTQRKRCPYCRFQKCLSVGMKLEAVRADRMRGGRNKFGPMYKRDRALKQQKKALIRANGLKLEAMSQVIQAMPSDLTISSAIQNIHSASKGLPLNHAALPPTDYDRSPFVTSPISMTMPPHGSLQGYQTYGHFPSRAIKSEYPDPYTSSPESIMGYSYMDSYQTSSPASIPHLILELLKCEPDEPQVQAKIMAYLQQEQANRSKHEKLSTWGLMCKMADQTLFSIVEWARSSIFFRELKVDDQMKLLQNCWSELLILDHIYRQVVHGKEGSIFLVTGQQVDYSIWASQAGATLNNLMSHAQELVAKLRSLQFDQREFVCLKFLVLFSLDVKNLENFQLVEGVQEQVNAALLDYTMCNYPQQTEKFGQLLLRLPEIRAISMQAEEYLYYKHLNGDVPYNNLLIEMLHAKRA
Experimental: Cell lines and Quantitative Real-time Polymerase Chain Reaction (RT-qPCR) Assay. […] Induction of low or high levels of hLRH-1 was achieved by addition of DMSO or 500 ng/ml Dox, respectively.
For RT-qPCR assay, cells (5×10^5) were plated on 24-well plates in 0.5 mL of media. The following day, fresh media was applied with compound or DMSO control. After an overnight treatment or indicated period of time, cells were washed with ice-cold 1×PBS and total RNA was isolated by Trizol (Life Technologies). DNase-treated total RNA was used to generate cDNA using High-Capacity cDNA Reverse Transcription kits (Life Technologies). RT-qPCR was performed with SYBR (Biotool) and data analyzed essentially as described [19].

[3] = target: biotinylated apo hLRH-1 LBD (Homo sapiens, UniProt O00482); test: Surface plasmon resonance binding assay; conditions: SPR, 25° C., titration from 300 μM, 1:1 binding model; listed as PME8
Sequence of biotinylated apo hLRH-1 LBD (O00482 300-539 limits assumed): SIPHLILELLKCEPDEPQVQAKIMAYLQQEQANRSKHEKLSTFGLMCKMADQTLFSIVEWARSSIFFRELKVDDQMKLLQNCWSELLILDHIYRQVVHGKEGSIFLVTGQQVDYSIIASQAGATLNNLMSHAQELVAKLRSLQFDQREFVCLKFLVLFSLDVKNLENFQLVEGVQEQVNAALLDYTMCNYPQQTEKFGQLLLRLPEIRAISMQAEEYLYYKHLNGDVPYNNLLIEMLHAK
Experimental: Surface Plasmon Resonance Assays. Data were collected on a BiaCore T100 instrument. The biotin CAPture kit (GE Healthcare Life Science) was used as directed for chip preparation and immobilization of protein. In brief, the CAP chip was first conditioned with 3×1 min injec-tions of the provided regeneration solution (6 M Guanidine HCL, 0.25 M NaOH). CAP reagent was then captured on flow cells 1 and 2 to a final density of ˜2500 response units using capture buffer (25 mM HEPES, pH 7.4, 150 mM NaCl). Avi-tagged LRH-1 was then directly injected exclusively on to flow cell 2 achieving a final density of ˜1000 response units (capture buffer). […] A titration series for each fragment was generated as a 0.6× dilution series starting from 300 μM. All samples were made to match the running buffer used in the experiment as closely as possible (capture buffer+3% DMSO, +0.05% Tween-20, 250 μM TCEP). Data was collected at 25° C. with a flow rate of 30 μL/min. Data processing included referencing to both the reference flow cell as well as a buffer injection. Equilibrium binding constants were determined by nonlinear regression analysis utilizing a simple 1:1 binding model. Steady state values used to generate dose-responses curve correspond to the response units achieved 20 seconds after injection.

[4] = test system: TBP; test: RT-qPCR of housekeeping gene TBP in HepG2-hLRH-1 cells; assay type: cell-based, human; conditions: high hLRH-1 (+Dox), 16 h, SR1848 10 μM
Experimental: FIG. 9. Effects of select compounds targeting hLRH-1 compared to PME8. Agonists and antagonists were tested in HepG2-hLRH-1 cells expressing high levels (+Dox) of hLRH-1; activating compounds were added for 16 h relative to the DMSO control (black bars) at the following concentrations: RJW100 (10 μM), DLPC (20 μM), PME8 (10 μM) (bolded, this study) as well as the two putative antagonist/repressors, SR1848 (10 μM) and Cpd3 (10 μM); relative levels of the hLRH-1 target, CYP24A1 (left set of bars) and the housekeeping gene, TBP (right set of bars) are shown with all values normalized to GAPDH. Error bars represents SEM and P values=****<0.0001.
Finally, to ask how PME8 and PME9 compare to other published compounds, we directly compared the activity of all compounds with respect to the ability to activate or repress CYP24A1 expression in HepG2-hLRH-1 cells. For this experiment, assays were carried out under high levels of hLRH-1 (+Dox) to maximize our ability to see any repressive effects of compounds and the ligand concentrations used were based on published effective doses. […] Of the two published antagonist/repressors, only SR1848 decreased CYP24A1 levels. […]
For RT-qPCR assay, cells (5×10^5) were plated on 24-well plates in 0.5 mL of media. […] RT-qPCR was performed with SYBR (Biotool) and data analyzed essentially as described. […]

T1 sequence (O00482 whole entry): as the sequence (O00482 whole entry F342W/I416W) above, with W342F, W416I counted along it

treatment time of maximal activity (CYP24A1 levels) ([1]; HepG2-hLRH-1 cells) [h] | CYP24A1 expression, comparison of published compounds ([1]; high hLRH-1 (+Dox), 16 h, RJW100 10 μM, DLPC 20 μM, SR1848 10 μM) | SMILES | CYP24A1 expression after siRNA-mediated knockdown of hLRH-1 (dependence on hLRH-1) ([1]; 10 μM, siLRH-1 vs siControl, HepG2-hLRH-1 cells, low hLRH-1 (−Dox), listed as PME8) | time and dose dependence of CYP24A1 induction ([1]; HepG2-hLRH-1 cells, 3-24 h at 10 μM, increasing concentrations for 16 h, −Dox or +Dox, listed as PME8) | activity (CYP24A1 transcripts) in cells expressing the pocket mutant versus wild type hLRH-1 [2] | binding to the hLRH-1 LBD [3] | expression of the housekeeping gene TBP [4]
16 | – | CCCNC(=O)c1cc(C(C)(C)C)cc(C(C)(C)C)c1O [Compound 8, 3,5-di-tert-butyl-2-hydroxy-N-propylbenzamide] | precipitous drop in CYP24A1 expression; also recorded: Depends on hLRH-1 | time-dependent (FIG. 7A) and dose-dependent | decreased; also recorded: depends on an intact hLRH-1 ligand binding pocket | direct binding; also recorded: bind directly | –
– | decreased | O=c1cc(N2CCN(c3cccc(Cl)c3)CC2)[nH]c(=O)n1C1CCCCC1 [SR1848, reference compound] | – | – | – | – | substantial repression

Reference: patent US10980755B2, “LRH-1 modulators” (THE REGENTS OF THE UNIVERSITY OF CALIFORNIA, priority 2015, dated 2021)
